Data: patent publication US20260356835A1, “BICYCLIC HETEROARYL COMPOUNDS” (QuantX Biosciences US, Inc., priority 2023, published 2026)

Key:
[1] = biological target: T1, N-his8-TEV-hPARG (389-976) (Homo sapiens, UniProt Q86W56); test: PARG Biochemical Enzymatic Assay (PARG inhibition HTRF assay); conditions: 62.5 pM PARG, 5 nM Biotin-Parylated PARP1 substrate, 60 minutes preincubation, 10 minutes reaction at 23 °C
T1 construct: N-his8-TEV-hPARG (389-976); His8 (N); TEV protease cleavage site (N); made in house; host or cells: E. coli BL21(DE3)
Protocol: PARG Biochemical Enzymatic Assay
TEV-His8-PolyADP-Ribose Polymerase 1 (379-1014) (PARP1) and N-his8-TEV-hPARG (389-976) were used to transform BL21(DE3) competent cells followed by growth for 1 hour at 37 °C and plating on Kanamycin resistant agar plates. A single colony was then inoculated into 1 ml of Luria Broth and expansion into a 1 liter scale for growth at 37 °C for 3 hours. Expression was induced via 0.2 mM IPTG induction for 20 hours at 16 °C in BL21(DE3) E. coli. Purification was then performed using a Nickel column, size exclusion chromatography and HPLC analysis.
For substrate preparation, […] nicked DNA and 2 μM PARP1 protein were mixed for 10 minutes at 25 °C 10 μM biotin-NAD+ and 100 μM NAD+ were then added and incubated for 60 minutes at 30 °C to yield PARylated PARP1 substrate.
For compound screening, compounds were serially diluted to a 3× final concentration in assay buffer (Tris pH7.5 50 mM, KCl 50 mM, Tween-20 0.01%, BSA 0.1 mg/ml, EDTA 3 mM, EGTA 0.4 mM, DTT 1 mM) containing 1% DMSO. A top concentration of 1.5 μM for a 10-point dose response curve using a 1:3 dilution curve was used. 2.5×PARG (156.25 pM working concentration, 62.5 pM final concentration) was prepared in assay buffer and 4 ul added to a 384 well assay plate containing 2 μl of serially diluted compound. The plate was then centrifuged for 10 seconds and incubated for 60 minutes at 23 °C. 4 μl of 2.5× Biotin-Parylated PARP1 (12.5 nM working concentration, 5 nM final concentration) was then added to the plate and incubated for 10 minutes at 23 °C. 4 μl of […] Detection reagent containing 0.44 μg/ml of Streptavidin-Europium cryptate and 4 μg/ml of anti-6His-XL665 monoclonal antibody was added to the plate and incubated for 60 minutes at 23 °C. The Homogeneous Time Resolved Fluorescent (HTRF) signal was then measured on an Envision plate reader using and excitation wavelength of 337 nm and emission wavelengths of 615 nm and 665 nm. Normalized percent inhibition was then calculated using the following equation: % Inhibition normalized=(compound signal-min signal)/(max signal-min signal)*100%, where Maximum signal was substrate only wells and Minimum signal was enzyme and substrate well. IC50 was calculated by fitting % Inhibition values and log of compound concentrations to nonlinear regression (log(inhibitor) vs. response—Variable slope(four parameters)) with GraphPad 9.4.1
For biochemical activity, bracket is denoted as: A<100 nM; 100 nM<B<500 nM; C>500 nM

Kuramochi cells = test: Cellular Viability Assay (5 day Kuramochi cell viability, CellTiter-Glo); type: cell-based; conditions: 5 days, 37 °C, growth inhibition relative to Day 0 (T0) and DMSO
Protocol: Kuramochi cells were seeded at a density of 1000 cells per well in a 384-well, white, sterile, clear bottom plate, using a Multidrop liquid dispenser and incubated for 24 hours at 37 °C in a 5% CO2 humidified environment. 24 hours later, compounds were added starting at a top dose of 10 μM for a 9-point dose response curve at a 1:3 dilution using an iDOT HT liquid handler and incubated for 5 days at 37 °C in a 5% CO2 humidified environment. After 5 days and at Day 0, plates were incubated at room temperature for 30 minutes followed by the addition of 30 μl of CellTiter-Glo Reagent. Plates were then mixed for 10 minutes on an orbital shaker followed by incubation at room temperature for 20 minutes. Luminescence was then read using the Envision plate reader. Percent Growth Inhibition was then calculated using the following equation: Percent Growth Inhibition normalized=100−(compound signal−T0)/(max signal−T0)*100%, where Max Signal refers to the DMSO only treated cells and T0 refers to the Day0 viability measurement. Growth Inhibition 50 was then calculated using the following equation: Y=Bottom+(Top−Bottom)/(1+10^((Log IC50−X)*hillslope)).
For cell activity, bracket is denoted as: A<1 uM; 1 uM<B<5 uM; C>5 uM.

T1 sequence (Q86W56 389-976): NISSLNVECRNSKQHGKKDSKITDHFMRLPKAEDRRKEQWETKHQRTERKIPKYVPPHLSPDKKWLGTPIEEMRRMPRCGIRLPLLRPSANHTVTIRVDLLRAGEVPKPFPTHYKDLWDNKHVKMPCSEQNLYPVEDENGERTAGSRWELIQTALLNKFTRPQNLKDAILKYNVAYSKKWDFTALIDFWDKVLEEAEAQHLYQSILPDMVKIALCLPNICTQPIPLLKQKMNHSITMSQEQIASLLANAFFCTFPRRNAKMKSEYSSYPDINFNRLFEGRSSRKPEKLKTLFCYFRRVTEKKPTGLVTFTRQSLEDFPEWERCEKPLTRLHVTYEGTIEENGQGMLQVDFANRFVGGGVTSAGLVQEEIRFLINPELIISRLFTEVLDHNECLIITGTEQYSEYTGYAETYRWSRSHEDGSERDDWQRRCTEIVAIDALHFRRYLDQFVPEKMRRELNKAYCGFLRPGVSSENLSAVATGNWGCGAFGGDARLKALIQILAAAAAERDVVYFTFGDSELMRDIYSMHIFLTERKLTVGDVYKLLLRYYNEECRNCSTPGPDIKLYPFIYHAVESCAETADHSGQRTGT

## N#CC1(NS(=O)(=O)c2cc(N3CCN(C(=O)C4CC4)CC3)n3ncc(-c4nnc(C(F)F)s4)c3c2)CC1 [Example 3, N-(1-cyanocyclopropyl)-7-[4-(cyclopropanecarbonyl)piperazin-1-yl]-3-[5-(difluoromethyl)-1,3,4-thiadiazol-2-yl]pyrazolo[1,5-a]pyridine-5-sulfonamide]
[1]
  IC50: < 100 nM
Kuramochi cells
  IC50: < 1000 nM

## O=S(=O)(NC1(C(F)F)CC1)c1cc(N2CCC3(CC2)COC3)c2nnc(-c3nnc(C(F)F)s3)n2c1 [Example 40, 3-(5-(Difluoromethyl)-1,3,4-thiadiazol-2-yl)-N-(1-(difluoromethyl)cyclopropyl)-8-(2-oxa-7-azaspiro[3.5]nonan-7-yl)-[1,2,4]triazolo[4,3-a]pyridine-6-sulfonamide]
[1]
  IC50: < 100 nM
Kuramochi cells
  IC50: < 1000 nM

## CC1(NS(=O)(=O)c2cc(N3CCC4(CC3)COC4)n3ncc(-c4nc5ncccc5s4)c3c2)CC1 [Example 21, N-(1-methylcyclopropyl)-7-(2-oxa-7-azaspiro[3.5]nonan-7-yl)-3-(thiazolo[4,5-b]pyridin-2-yl)pyrazolo[1,5-a]pyridine-5-sulfonamide]
[1]
  IC50: < 100 nM
Kuramochi cells
  IC50: < 1000 nM

## O=S(=O)(NC1(C(F)F)CC1)c1cc(N2CCC3(CC2)COC3)c2ncc(-c3nnc(C(F)F)s3)n2c1 [Example 37, 3-(5-(difluoromethyl)-1,3,4-thiadiazol-2-yl)-N-(1-(difluoromethyl)cyclopropyl)-8-(2-oxa-7-azaspiro[3.5]nonan-7-yl)imidazo[1,2-a]pyridine-6-sulfonamide]
[1]
  IC50: < 100 nM
Kuramochi cells
  IC50: < 1000 nM

## CC1(NS(=O)(=O)c2cc(N3CCC4(CC3)COC4)n3ncc(-c4nc(C(F)F)ns4)c3c2)CC1 [Example 25, 3-(3-(difluoromethyl)-1,2,4-thiadiazol-5-yl)-N-(1-methylcyclopropyl)-7-(2-oxa-7-azaspiro[3.5]nonan-7-yl)pyrazolo[1,5-a]pyridine-5-sulfonamide]
[1]
  IC50: < 100 nM

## N#CC1(c2nnc(-c3cnn4c(N5CCC6(CC5)COC6)cc(S(=O)(=O)NC5(C(F)F)CC5)cc34)s2)CC1 [Example 23, 3-[5-(1-cyanocyclopropyl)-1,3,4-thiadiazol-2-yl]-N-[1-(difluoromethyl)cyclopropyl]-7-(2-oxa-7-azaspiro[3.5]nonan-7-yl)pyrazolo[1,5-a]pyridine-5-sulfonamide]
[1]
  IC50: < 100 nM
Kuramochi cells
  IC50: < 1000 nM

## CC1(NS(=O)(=O)c2cc(N3CCC4(CC3)COC4)n3cnc(-c4nnc(C(F)F)s4)c3c2)CC1 [Example 34, 1-(5-(difluoromethyl)-1,3,4-thiadiazol-2-yl)-N-(1-methylcyclopropyl)-5-(2-oxa-7-azaspiro[3.5]nonan-7-yl)imidazo[1,5-a]pyridine-7-sulfonamide]
[1]
  IC50: < 100 nM
Kuramochi cells
  IC50: < 1000 nM

## O=S(=O)(NC1(C(F)F)CC1)c1cc(N2CCC3(CC2)COC3)n2ncc(-c3nnc(C(F)F)s3)c2c1 [Example 10, 3-(5-(difluoromethyl)-1,3,4-thiadiazol-2-yl)-N-(1-(difluoromethyl)cyclopropyl)-7-(2-oxa-7-azaspiro[3.5]nonan-7-yl)pyrazolo[1,5-a]pyridine-5-sulfonamide]
[1]
  IC50: < 100 nM
Kuramochi cells
  IC50: < 1000 nM

## N#CC1(NS(=O)(=O)c2cc(N3CCC4(CC3)COC4)n3cnc(-c4nnc(C(F)F)s4)c3c2)CC1 [Example 36, N-(1-cyanocyclopropyl)-1-(5-(difluoromethyl)-1,3,4-thiadiazol-2-yl)-5-(2-oxa-7-azaspiro[3.5]nonan-7-yl)imidazo[1,5-a]pyridine-7-sulfonamide]
[1]
  IC50: < 100 nM
Kuramochi cells
  IC50: < 1000 nM

## N#CC1(NS(=O)(=O)c2cc3c(-c4nnc(C(F)F)s4)ncn3c(N3CCC4(CC3)COC4)c2F)CC1 [Example 41, N-(1-cyanocyclopropyl)-1-(5-(difluoromethyl)-1,3,4-thiadiazol-2-yl)-6-fluoro-5-(2-oxa-7-azaspiro[3.5]nonan-7-yl)imidazo[1,5-a]pyridine-7-sulfonamide]
[1]
  IC50: < 100 nM

## Cc1nnc(-c2cnn3c(N4CCC5(CC4)COC5)cc(S(=O)(=O)NC4(C)CC4)cc23)o1 [Example 9, 3-(5-methyl-1,3,4-oxadiazol-2-yl)-N-(1-methylcyclopropyl)-7-(2-oxa-7-azaspiro[3.5]nonan-7-yl)pyrazolo[1,5-a]pyridine-5-sulfonamide]
[1]
  IC50: 100 to 500 nM
Kuramochi cells
  IC50: < 1000 nM

## O=C(N1CCN(c2cc(S(=O)(=O)NC34CC(C3)C4)cc3c2cnn3-c2nnc(C(F)F)s2)CC1)N1CC[C@H](O)C1 [Example 27, N-(1-bicyclo [1.1.1]pentanyl)-1-[5-(difluoromethyl)-1,3,4-thiadiazol-2-yl]-4-[4-[(3S)-3-hydroxypyrrolidine-1-carbonyl]piperazin-1-yl] indazole-6-sulfonamide]
[1]
  IC50: > 500 nM

## N#CC1(NS(=O)(=O)c2cc(C3=CCN(C(=O)C4CC4)CC3)n3ncc(-c4nnc(C(F)F)s4)c3c2)CC1 [Example 6, N-(1-cyanocyclopropyl)-7-(1-(cyclopropanecarbonyl)-1,2,3,6-tetrahydropyridin-4-yl)-3-(5-(difluoromethyl)-1,3,4-thiadiazol-2-yl)pyrazolo[1,5-a]pyridine-5-sulfonamide]
[1]
  IC50: < 100 nM
Kuramochi cells
  IC50: < 1000 nM

## C#CC1(NS(=O)(=O)c2cc(N3CCN(C(=O)N4CC[C@H](O)C4)CC3)c3cnn(-c4nnc(C(F)F)s4)c3c2)CC1 [Example 26, 1-[5-(difluoromethyl)-1,3,4-thiadiazol-2-yl]-N-(1-ethynylcyclopropyl)-4-[4-[(3S)-3-hydroxypyrrolidine-1-carbonyl]piperazin-1-yl]indazole-6-sulfonamide]
[1]
  IC50: < 100 nM
Kuramochi cells
  IC50: < 1000 nM

## CC(=O)N1CCN(c2cc(S(=O)(=O)NC3(C)CC3)cc3c2cnn3-c2nc3c(s2)C(C)(O)COC3)CC1 (centres unmarked) [Example 30, 4-(4-acetylpiperazin-1-yl)-1-(7-hydroxy-7-methyl-6,7-dihydro-4H-pyrano[3,4-d]thiazol-2-yl)-N-(1-methylcyclopropyl)-1H-indazole-6-sulfonamide]
[1]
  IC50: > 500 nM

## CC(=O)N1CCN(c2cc(S(=O)(=O)NC3(C)CC3)cc3c2cnn3-c2nnc(C3(O)CCC3)s2)CC1 [Example 29, 4-(4-acetylpiperazin-1-yl)-1-[5-(1-hydroxycyclobutyl)-1,3,4-thiadiazol-2-yl]-N-(1-methylcyclopropyl)indazole-6-sulfonamide]
[1]
  IC50: 100 to 500 nM

## CC1(NS(=O)(=O)c2cc(N3CCC4(CC3)COC4)n3ncc(-c4nnc(C5(C#N)CC5)s4)c3c2)CC1 [Example 8, 3-(5-(1-cyanocyclopropyl)-1,3,4-thiadiazol-2-yl)-N-(1-methylcyclopropyl)-7-(2-oxa-7-azaspiro[3.5]nonan-7-yl)pyrazolo[1,5-a]pyridine-5-sulfonamide]
[1]
  IC50: < 100 nM
Kuramochi cells
  IC50: < 1000 nM

## CC1(NS(=O)(=O)c2cc(-n3cc(C4(O)CCC4)cn3)c3cnn(-c4nnc(C5(O)CCC5)s4)c3c2)CC1 [Example 31, 4-[4-(1-hydroxycyclobutyl)pyrazol-1-yl]-1-[5-(1-hydroxycyclobutyl)-1,3,4-thiadiazol-2-yl]-N-(1-methylcyclopropyl)indazole-6-sulfonamide]
[1]
  IC50: 100 to 500 nM
Kuramochi cells
  IC50: 1000 to 5000 nM

## CC(=O)N1CCN(c2cc(S(=O)(=O)NC3(C)CC3)cn3c(-c4nnc(C5(C#N)CC5)s4)cnc23)CC1 [Example 38, 8-(4-acetylpiperazin-1-yl)-3-(5-(1-cyanocyclopropyl)-1,3,4-thiadiazol-2-yl)-N-(1-methylcyclopropyl)imidazo[1,2-a]pyridine-6-sulfonamide]
[1]
  IC50: < 100 nM
